Test: Chlorine dioxide generation test 1: organic substance added to sodium chlorite solution, reactivity observed
Assay type: physicochemical
Design: key: high reaction rate (+++++) resulted in the initiation of chlorine dioxide gas generation relatively quickly within several hours to several days after the addition; intermediate reaction rate (+++) resulted in the initiation of chlorine dioxide gas generation within several days to several tens of days after the addition; The reaction initiation time of the organic substances with a slow reaction rate (+) is hard to specify
Settings: organic substance added to 23% aqueous sodium chlorite; room temperature and refrigerated temperature
Method: To investigate the reactivity with and the risk of sodium chlorite depending on the type of organic substance, each of organic substances in Table 1 was added to a 23% aqueous solution of sodium chlorite to observe the reactivity at room temperature and refrigerated temperature.

Row | SMILES | Reaction rate
1 | [Ca+2].[OH-].[OH-] [Calcium hydroxide] | No reaction
2 | [O]=[Ca] [Calcium oxide] | No reaction
3 | CCO [Ethanol] | +++++
4 | O=C(CO)[C@@H](O)[C@H](O)[C@H](O)CO [Fructose] | +++
5 | OCC(O)CO [Glycerol] | +++++
6 | OO [Hydrogen peroxide] | No reaction
7 | [K+].[OH-] [Potassium hydroxide] | No reaction
8 | [Cl-].[Na+] [Salt] | No reaction
9 | O=C([O-])[O-].[Na+].[Na+] [Sodium carbonate] | +
10 | N[C@@H](CCC(=O)[O-])C(=O)[O-].[Na+].[Na+] [Sodium glutamate] | +++++
11 | [Na+].[OH-] [Sodium hydroxide] | No reaction
12 | O=C1NS(=O)(=O)c2ccccc21.[Na] [Sodium saccharin] | +++
13 | OC[C@@H](O)[C@@H](O)[C@H](O)[C@@H](O)CO [Sorbitol] | +++
14 | OC[C@H]1O[C@@](CO)(O[C@H]2O[C@H](CO)[C@@H](O)[C@H](O)[C@H]2O)[C@@H](O)[C@@H]1O [Sucrose] | +++
15 | OC[C@H]1O[C@H](O[C@H]2O[C@H](CO)[C@@H](O)[C@H](O)[C@H]2O)[C@H](O)[C@@H](O)[C@@H]1O [Trehalose] | +++

Reference: patent US20260152395A1, “SUSTAINED-RELEASE CHLORINE DIOXIDE GAS […] AND METHOD” (ABC MEDICAL CO., LTD., priority 2022, published 2026)
